From patent US5700780A, “Antiviral peptide derivatives having a 2-oxoalkyl amino acid side chain” (Boehringer Ingelheim (Canada), Ltd., priority 1989, dated 1997)
Where a SMILES comes first, the peptide text is derived from it.

What follows are molecules tested against HSV-1 ribonucleotide reductase (Human herpesvirus 1, UniProt P08543) (assay: biochemical).
Chain of HSV-1 ribonucleotide reductase (P08543 whole entry): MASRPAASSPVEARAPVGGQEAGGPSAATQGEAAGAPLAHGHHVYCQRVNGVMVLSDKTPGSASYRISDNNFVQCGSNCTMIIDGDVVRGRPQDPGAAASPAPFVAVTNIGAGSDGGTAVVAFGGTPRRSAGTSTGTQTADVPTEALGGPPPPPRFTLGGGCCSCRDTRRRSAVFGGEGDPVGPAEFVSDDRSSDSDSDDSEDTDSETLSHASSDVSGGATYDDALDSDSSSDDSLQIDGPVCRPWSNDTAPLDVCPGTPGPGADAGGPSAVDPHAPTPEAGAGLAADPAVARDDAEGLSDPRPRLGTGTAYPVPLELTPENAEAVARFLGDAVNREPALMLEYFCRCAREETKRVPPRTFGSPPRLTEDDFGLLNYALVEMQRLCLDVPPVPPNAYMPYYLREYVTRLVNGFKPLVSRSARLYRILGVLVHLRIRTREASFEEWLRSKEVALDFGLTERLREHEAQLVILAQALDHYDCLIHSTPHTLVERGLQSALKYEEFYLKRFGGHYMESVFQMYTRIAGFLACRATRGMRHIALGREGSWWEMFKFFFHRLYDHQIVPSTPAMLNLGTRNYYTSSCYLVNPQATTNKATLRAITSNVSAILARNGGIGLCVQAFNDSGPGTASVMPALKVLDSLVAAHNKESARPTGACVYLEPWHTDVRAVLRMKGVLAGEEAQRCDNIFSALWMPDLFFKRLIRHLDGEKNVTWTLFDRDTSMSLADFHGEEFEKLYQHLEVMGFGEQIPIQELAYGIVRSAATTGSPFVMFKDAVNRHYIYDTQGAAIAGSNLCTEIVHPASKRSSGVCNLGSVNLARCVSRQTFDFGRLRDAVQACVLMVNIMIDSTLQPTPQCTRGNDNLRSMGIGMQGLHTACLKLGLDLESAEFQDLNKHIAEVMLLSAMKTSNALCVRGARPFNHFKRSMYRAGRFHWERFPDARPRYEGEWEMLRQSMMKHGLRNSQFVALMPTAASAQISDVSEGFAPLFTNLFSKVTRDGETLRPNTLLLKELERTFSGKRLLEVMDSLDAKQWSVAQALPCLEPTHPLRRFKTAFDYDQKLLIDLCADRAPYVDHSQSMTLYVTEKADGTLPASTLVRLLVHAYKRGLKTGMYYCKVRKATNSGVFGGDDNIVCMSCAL
Description: Inhibition of Herpes Simplex Virus (HSV, type 1) Ribonucleotide Reductase
HSV-1 ribonucleotide reductase (partially purified) was obtained from quiescent BHK-21/C13 cells infected with strain F HSV-1 virus at 10 plaque forming units/cell as described by E. A. Cohen et al., J. Gen. Virol., 66, 733 (1985).
The procedure described by P. Gaudreau et al., J. Biol, Chem., 262, 12413 (1987), was employed. […] The number of units of the enzyme preparation used in each assay was constant, based on the specific activity of the enzyme preparation.
Molecule `CCCCCCCC(=O)C[C@H](NC(=O)[C@@H](NC(=O)C(CC)CC)[C@@H](C)CC)C(=O)N[C@@H](CC(=O)O)C(=O)N[C@@H](CC(C)C)C(=O)O` [2-Ethylbutanoyl-Ile--NHCH(2-oxononyl)-CO--Asp--Leu--OH] has an IC50 of 24 µM.
Molecule `CCCCCCCCCCCC(=O)C[C@H](NC(=O)[C@@H](NC(=O)C(CC)CC)[C@@H](C)CC)C(=O)N[C@@H](CC(=O)O)C(=O)N[C@@H](CC(C)C)C(=O)O` [2-Ethylbutanoyl-Ile--NHCH(2-oxotridecyl)-CO--Asp--Leu--OH] has an IC50 of 8.5 µM.
Work on `CCC(CC)C(=O)N[C@H](C(=O)N[C@@H](CC(=O)C1CCCC1)C(=O)N[C@@H](CC(=O)O)C(=O)NCCC(C)(C)C)C(C)(C)C` [2-Ethylbutanoyl-Tbg--NHCH(2-cyclopentyl-2-oxoethyl)-CO--Asp--NHCH2 CH2 C(CH3)3] yielded an IC50 of 23 µM.
With `CCCCCC(=O)C[C@H](NC(=O)[C@@H](NC(=O)C(CC)CC)C(C)(C)C)C(=O)N[C@@H](CC(=O)O)C(=O)N[C@@H](CC(C)C)C(=O)O` [2-Ethylbutanoyl-Tbg--NHCH(2-oxoheptyl)-CO--Asp--Leu--OH] the IC50 was 7.5 µM.
For `CCCCCCCC(=O)C[C@H](NC(=O)[C@@H](NC(=O)C(CC)CC)C(C)(C)C)C(=O)N[C@@H](CC(=O)O)C(=O)N[C@@H](CC(C)C)C(=O)O` [2-Ethylbutanoyl-Tbg--NHCH(2-oxononyl)-CO--Asp--Leu--OH], the IC50 was 4.5 µM.
With `CCCCCCCC(=O)C[C@H](NC(=O)[C@@H](NC(=O)C(CC)CC)C(C)(C)C)C(=O)N[C@H](C(=O)N[C@@H](CC(C)C)C(=O)O)C(C)(C)C(=O)O` [2-Ethylbutanoyl-Tbg--NHCH(2-oxononyl)-CO--NHCH[C(CH3)2 COOH]--CO--Leu--OH] the IC50 was 1.2 µM.
In the case of `CC[C@H](C)[C@H](NC(=O)[C@H](C(C)C)N(C)C(=O)CCc1ccccc1)C(=O)N[C@@H](CC(=O)C1CCCC1)C(=O)N[C@@H](CC(=O)O)C(=O)N[C@@H](CC(C)C)C(=O)O` [PhCH2 CH2 CO--N--Me--Val--Ile--NHCH(2-cyclopentyl-2-oxoethyl)-CO--Asp--Leu--OH] (HELM PEPTIDE1{[O=C(CCc1ccccc1)[*:2]].[meV].I.[O=C(C[C@H](N[*:1])C(=O)[*:2])C1CCCC1].D.L}$$$$V2.0), the IC50 is reported as 0.18 µM.
Molecule `CCCCCCCC(=O)C[C@H](NC(=O)[C@@H](NC(=O)[C@H](C(C)C)N(C)C(=O)CCc1ccccc1)[C@@H](C)CC)C(=O)N[C@@H](CC(=O)O)C(=O)N[C@@H](CC(C)C)C(=O)O` [PhCH2 CH2 CO--N--Me--Val--Ile--NHCH(2-oxononyl)-CO--Asp--Leu--OH] (HELM PEPTIDE1{[O=C(CCc1ccccc1)[*:2]].[meV].I.[CCCCCCCC(=O)C[C@H](N[*:1])C(=O)[*:2]].D.L}$$$$V2.0) has an IC50 of 0.42 µM.
For `CC[C@H](C)[C@H](NC(=O)[C@H](C(C)C)N(C)C(=O)CCc1ccccc1)C(=O)N[C@@H](CC(C)=O)C(=O)N[C@@H](CC(=O)O)C(=O)N[C@@H](CC(C)C)C(=O)O` [PhCH2 CH2 CO--N--Me--Val--Ile--NHCH(2-oxopropyl)-CO--Asp--Leu--OH] (HELM PEPTIDE1{[O=C(CCc1ccccc1)[*:2]].[meV].I.[CC(=O)C[C@H](N[*:1])C(=O)[*:2]].D.L}$$$$V2.0), the IC50 was 1.3 µM.
`CCCCCCCCCCCC(=O)C[C@H](NC(=O)[C@@H](NC(=O)[C@H](C(C)C)N(C)C(=O)CCc1ccccc1)[C@@H](C)CC)C(=O)N[C@@H](CC(=O)O)C(=O)N[C@@H](CC(C)C)C(N)=O` [PhCH2 CH2 CO--N--Me--Val--Ile--NHCH(2-oxotridecyl)-CO--Asp--Leu--NH2] (HELM PEPTIDE1{[O=C(CCc1ccccc1)[*:2]].[meV].I.[CCCCCCCCCCCC(=O)C[C@H](N[*:1])C(=O)[*:2]].D.L.[am]}$$$$V2.0) showed an IC50 of 6.3 µM.
